According to patent publication US9493466B2, “Treatment of cancer with TOR kinase inhibitors” (Signal Pharmaceuticals, LLC, priority 2011, dated 2016):

Tests used:
[1] = system: Calu-3; assay: Cell viability assay for NSCLC lines; format: cell-based, human; conditions: Calu-3, 3 days
Method: (§1) Cell Viability Assay for NSCLC Lines. Cell viability was assessed using the Cell Titer-Glo Luminescent Cell Viability from Promega. The assay is a homogenous method of determining the number of viable cells in culture based on quantitation of the adenosine triphosphate (ATP) present, an indicator of metabolically active cells. The homogenous assay procedure involves adding the single reagent (CellTiter-Glo Reagent) directly to cells cultured in serum-supplemented medium. Cells were plated into a 96-well flat bottom plate (Costar Catalog Number 33595) at densities that were previously optimized for each cell line. The cells were incubated overnight in 5% CO2 at 37° C. The following day, compound dilutions were prepared and all concentrations were assayed in triplicate. The cells were incubated with Compound 1 (0.03 μM, 0.1 μM, 0.3 μM, 1 μM, 3 μM, 10 μM and 30 μM for NSCLC cells) in 5% CO2 at 37° C. for 3 days. After a 3-day incubation period, 100 μL of CellTiter-Glo reagent was added to each well for 2 minutes with shaking and further incubated for 10 minutes (no shaking) at room temperature to stabilize the signal. The luminescence was measured on the VICTOR X2 multilabel plate reader. The percent growth inhibition was calculated using the DMSO control in the same plate (no compound) response as 100% cell growth. The average values from triplicates were plotted to obtain IC50 values using software XLfit from IDBS. The formula used for determining IC50 in XLfit was model number 205, which utilizes a 4 Parameter Logistic Model or Sigmoidal Dose-Response Model to calculate the IC50 values. All IC50 values are reported as an average from either two independent experiments or a single experiment.

[2] = system: NCI-H1395; assay: Cell viability assay for NSCLC lines; format: cell-based, human; conditions: NCI-H1395, 3 days
Method: as §1

[3] = system: NCI-H1563; assay: Cell viability assay for NSCLC lines; format: cell-based, human; conditions: NCI-H1563, 3 days
Method: as §1

[4] = system: NCI-H1650; assay: Cell viability assay for NSCLC lines; format: cell-based, human; conditions: NCI-H1650, 3 days
Method: as §1

[5] = system: NCI-H1734; assay: Cell viability assay for NSCLC lines; format: cell-based, human; conditions: NCI-H1734, 3 days
Method: as §1

[6] = system: NCI-H1792; assay: Cell viability assay for NSCLC lines; format: cell-based, human; conditions: NCI-H1792, 3 days
Method: as §1

[7] = system: NCI-H1838; assay: Cell viability assay for NSCLC lines; format: cell-based, human; conditions: NCI-H1838, 3 days
Method: as §1

[8] = system: NCI-H1993; assay: Cell viability assay for NSCLC lines; format: cell-based, human; conditions: NCI-H1993, 3 days
Method: as §1

[9] = system: NCI-H28; assay: Cell viability assay for NSCLC lines; format: cell-based, human; conditions: NCI-H28, 3 days
Method: as §1

[10] = system: NCI-H460; assay: Cell viability assay for NSCLC lines; format: cell-based, human; conditions: NCI-H460, 3 days
Method: as §1

[11] = system: NCI-H596; assay: Cell viability assay for NSCLC lines; format: cell-based, human; conditions: NCI-H596, 3 days
Method: as §1

[12] = system: NCI-H647; assay: Cell viability assay for NSCLC lines; format: cell-based, human; conditions: NCI-H647, 3 days
Method: as §1

[13] = system: NCI-H727; assay: Cell viability assay for NSCLC lines; format: cell-based, human; conditions: NCI-H727, 3 days
Method: as §1

[14] = system: SK-LU-1; assay: Cell viability assay for NSCLC lines; format: cell-based, human; conditions: SK-LU-1, 3 days
Method: as §1

[15] = system: U87MG tumors; assay: U87MG human glioblastoma xenograft model (Compound 2); format: in vivo, SCID mice
Method: U87MG Human Glioblastoma Xenograft Model (Compound 2). Efficacy Studies: Groups of female SCID mice bearing U87MG tumors (n=8-10/group) were dosed orally with vehicle or Compound 2 (doses ranged between 0.05 and 1 mg/kg) throughout the study, starting when tumor volumes reached approximately 170-180 mm^3. The twice daily (BID) dose groups were dosed with a 10-hour separation between morning and evening doses. In the positive control group, rapamycin was administered every third day (Q3D) via intraperitoneal (IP) route. At the end of each study, plasma and/or tumor samples were collected.
Cell Line and Culture. U87MG cell line was obtained from American Tissue Culture Collection (ATCC) (Gaithersburg, Md.) and grown in growth medium containing MEM, 2 mM L-glutamine, 0.1 mM non-essential amino acids, and 1 mM sodium pyruvate plus 10% FBS. The cells were detached from tissue culture flasks using trypsin-EDTA. After centrifugation, the cell pellets were suspended in PBS and cells counted using a hemocytometer. The final volume was adjusted to 5×10^6 cells/0.1 mL of PBS.
Tumor Cell Inoculation. […]
Randomization of Animals. […] The tumor of each animal was measured and animals with tumors ranging between 170 and 180 mm^3 were included in the study. […]
Tumor Measurements. Tumor volumes were determined prior to the initiation of treatment and were considered as the starting volumes. Thereafter, tumors were measured twice a week for the duration of the study. The long and short axes of each tumor were measured using a digital caliper in millimeters. Tumor volumes were calculated using the formula: width^2×length/2. […]
Body Weight Measurements. Initial body weights were recorded prior to the initiation of treatment using a digital scale. The percentage body weight change during the course of the study was calculated using initial body weight measurements. Body weights of each animal were measured twice a week at the same time as the tumor measurements. Body weights were measured more frequently if significant decreases were noted during the course of the study.

CO[C@H]1CC[C@H](N2C(=O)CNc3ncc(-c4ccc(C(C)(C)O)nc4)nc32)CC1 [Compound 1, 7-(6-(2-hydroxypropan-2-yl)pyridin-3-yl)-1-((1r,4r)-4-methoxycyclohexyl)-3,4-dihydropyrazino-[2,3-b]pyrazin-2(1H)-one]
IC50 [1]: 0.302 µM
IC50 [2]: 0.6 µM
IC50 [3]: > 30 µM
IC50 [4]: > 30 µM
IC50 [5]: 1.55 µM
IC50 [6]: 0.54 µM
IC50 [7]: > 30 µM
IC50 [8]: 0.5 µM
IC50 [9]: > 30 µM
IC50 [10]: 0.37 µM
IC50 [11]: 2.2 µM
IC50 [12]: 1.36 µM
IC50 [13]: 0.288 µM
IC50 [14]: 1.44 µM

CCN1C(=O)CNc2ncc(-c3ccc(-c4nc[nH]n4)nc3C)nc21 [Compound 2, 1-ethyl-7-(2-methyl-6-(1H-1,2,4-triazol-3-yl)pyridin-3-yl)-3,4-dihydropyrazino[2,3-b]pyrazin-2(1H)-one]
average tumor volumes compared with vehicle ([15]; 0.05, 0.1 and 0.3 mg/kg BID oral, Day 35): significantly smaller (p<0.001)
average tumor volumes compared with vehicle ([15]; 0.1, 0.5 and 1 mg/kg QD oral, Day 34): significantly smaller (p<0.001)
lowest efficacious dose (approximately 65% tumor volume inhibition) ([15]; QD oral, 3 weeks): 0.5 mg/kg
